{"source": "patent US20250295083A1", "about": "“METHODS FOR PRODUCING AN ORGANOGENIC CALLUS AND COMPOSITIONS, SYSTEMS, AND METHODS RELATING THERETO” (Pairwise Plants Services, Inc., priority 2022, published 2025)", "test_system": "cross sections of the stems (including nodes) of the lateral shoots, cherry variety Sweetheart", "experiment": "Callus induction from cut stem cross sections (including nodes) cultured on media", "type": "cell-based, sweet cherry (Prunus avium)", "conditions": "24° C., 8 weeks in the dark", "description": "The cherry variety, Sweetheart, was grown in a greenhouse and stem tissue was collected. The stem tissue was grown in vitro on propagation media (Table 1) at 25° C., 40 μM light with a 16 hour photoperiod until lateral shoots began to emerge. The stem tissue with lateral shoots were grown on the propagation media for no more than 10 days and were collected by day 10.\nLeaves and petioles were removed from the lateral shoots and cross sections of the stems (including nodes) of the lateral shoots were cut. The cross sections of the stems were about 0.5 mm wide. For the purpose of inducing callus formation, the cut material was then placed onto either Garin media as described in Garin, E., et al. (1997). Plant cell, tissue and organ culture, 48(2), 83-91, media comprising 2 mg TDZ, media comprising 5 mg TDZ, or media comprising 10 mg TDZ and cultured at 24° C. for 8 weeks in the dark. The plant material was moved to fresh media approximately every three weeks. If endophyte growth was noted as the experiment was progressing, then the media was supplemented with 200 mg/L cefoxatime. Approximately 149 nodes were processed and cultured on the media containing 5 mg TDZ. Approximately 149 nodes were processed and cultured on the media containing 10 mg TDZ. Approximately 324 nodes were processed and cultured on the Garin media. The lateral shoots were cultured for a total of 8 weeks on the medias described above and then observed for the formation of callus.", "note": "“Also recorded” adds a separate entry of the source."}
{"smiles": "O=C(Nc1ccccc1)Nc1cnns1", "note": "[TDZ, thidiazuron]", "values": [{"measurement": "Observations (callus formation)", "setting": "media comprising 2 mg TDZ", "value": "Small amount of callus formed"}, {"measurement": "Observations (callus formation)", "setting": "media comprising 5 mg TDZ", "value": "Moderate amount of callus but much"}, {"measurement": "Observations (callus formation)", "setting": "media comprising 10 mg TDZ (10 mg/L)", "value": "many more of the tissues developing callus; also recorded: along with considerably more mass being"}, {"measurement": "tissues forming callus", "setting": "media comprising 10 mg TDZ", "value": "Nearly 100% of tissues forming callus"}]}
